Test results published in patent US7977328B2, “Heteroaryl benzamide derivatives for use as GLK activators in the treatment of diabetes” (AstraZeneca AB, priority 2005, dated 2011).

Legend:
Zucker obese fa/fa rats = assay: Oral Glucose Tolerance Test (OGTT); format: in vivo, rat; details: 10 mg/kg, given orally 120 minutes before glucose 2 g/kg; Zucker obese fa/fa rats on high fat diet
Experimental: Oral glucose tolerance tests were done on conscious Zucker obese fa/fa rats (age 12-13 weeks or older) fed a high fat diet (45% kcal fat) for at least two weeks prior to experimentation. The animals were fasted for 2 hours before use for experiments. A test compound or a vehicle was given orally 120 minutes before oral administration of a glucose solution at a dose of 2 g/kg body weight. Blood glucose levels were measured using a Accucheck glucometer from tail bled samples taken at different time points before and after administration of glucose (time course of […]). A time curve of the blood glucose levels was generated and the area-under-the-curve (AUC) for 120 minutes was calculated (the time of glucose administration being time zero). Percent reduction in glucose excursion was determined using the AUC in the vehicle-control group as zero percent reduction.

[1] = biological target: T1, recombinant human pancreatic GLK (Homo sapiens, UniProt P35557); assay: biochemical
T1 sequence (P35557 1-465): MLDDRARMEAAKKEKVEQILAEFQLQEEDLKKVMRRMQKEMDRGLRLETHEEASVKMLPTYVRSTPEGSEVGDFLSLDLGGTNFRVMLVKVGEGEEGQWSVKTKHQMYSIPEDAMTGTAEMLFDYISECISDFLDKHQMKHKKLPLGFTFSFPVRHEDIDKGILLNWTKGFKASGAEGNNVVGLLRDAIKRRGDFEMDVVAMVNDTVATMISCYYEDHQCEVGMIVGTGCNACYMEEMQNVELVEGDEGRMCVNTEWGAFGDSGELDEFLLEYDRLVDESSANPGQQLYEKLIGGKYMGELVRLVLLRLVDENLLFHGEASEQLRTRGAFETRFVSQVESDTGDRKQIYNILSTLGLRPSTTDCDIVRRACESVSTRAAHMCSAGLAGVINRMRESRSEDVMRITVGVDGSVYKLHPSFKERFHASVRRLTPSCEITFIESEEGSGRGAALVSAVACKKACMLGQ

Compound | OGTT activity (percent reduction in glucose excursion, AUC) (Zucker obese fa/fa rats) [%] | melting point [°C] | EC50 [1] [nM]
COC[C@H](C)Oc1cc(Oc2ccc(C(=O)N3CCC3)nc2)cc(C(=O)Nc2ccn(C)n2)c1 [Example 3, 3-{[6-(Azetidin-1-ylcarbonyl)pyridin-3-yl]oxy}-5-{[(1S)-1-methyl-2-(methyloxy)ethyl]oxy}-N-(1-methyl-1H-pyrazol-3-yl)benzamide] | 54 | 132.7 | 31
Cc1cnc(NC(=O)c2cc(Oc3ccc(C(=O)N4CCC4)nc3)cc(OC(C)C)c2)cn1 [Example 37, 3-{[6-(Azetidin-1-ylcarbonyl)pyridin-3-yl]oxy}-5-[(1-methylethyl)oxy]-N-(5-methylpyrazin-2-yl)benzamide] |  | 125.7 | 
Cc1cnc(NC(=O)c2cc(Oc3cnc(C(=O)N4CCC4)cn3)cc(O[C@@H](C)CO)c2)cn1 [Example 59, 3-{[5-(Azetidin-1-ylcarbonyl)pyrazin-2-yl]oxy}-5-{[(1S)-2-hydroxy-1-methylethyl]oxy}-N-(5-methylpyrazin-2-yl)benzamide] |  | 100.6 | 
